Reference: US20240150321A1, “PYRAZOLYLSULFONAMIDE COMPOUNDS AND THEIR USE IN THERAPY” (HOTSPOT THERAPEUTICS, INC., priority 2022, published 2024)

Experiments:
Avi-tagged FL MALT-1 = Avi-tagged FL MALT-1 (Homo sapiens (Human), UniProt Q9UDY8); assay: MALT-1 Fluorogenic Peptide Cleavage Assay (MALT1 inhibition assay); type: biochemical; details: Ac-LRSR-AMC peptide substrate, 30 min pre-incubation, 90 min reaction at room temperature
How it was run: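 Full-length Avi-tagged human MALT-1 (40 nM working stock) pre-incubated 30 min at RT with compound in 25 mM HEPES pH 6.89, 660 mM sodium citrate, 1 mM TCEP, […], 0.05% CHAPS, 2% DMSO. Ac-LRSR-AMC added at Km (50 μM working stock) or 10×Km (280 μM working stock); 90 min at RT, AMC fluorescence (ex 342/em 441 nm), IC50 from % inhibition curves.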

[1] = tested on: NF-kB reporter in Jurkat cells; assay: NF-kB reporter assay in Jurkat cells stimulated with aCD3/aCD28/PMA; type: cell-based; details: Homo sapiens; Jurkat cells, 1 hr compound pre-incubation, aCD3/aCD28/PMA stimulation 4 hr, One-Glo readout; read-out: NF-kB Reporter Assay IC50
How it was run: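 Jurkat cells (25,000/well, serum-free RPMI) were pre-incubated 1 h at 37° C with serially diluted compound, then stimulated 4 h with aCD3/aCD28/PMA at final […]. NF-kB reporter activity was read by One-Glo luminescence; IC50 values reported.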

Avi-tagged FL MALT-1, sequence (Q9UDY8 whole entry): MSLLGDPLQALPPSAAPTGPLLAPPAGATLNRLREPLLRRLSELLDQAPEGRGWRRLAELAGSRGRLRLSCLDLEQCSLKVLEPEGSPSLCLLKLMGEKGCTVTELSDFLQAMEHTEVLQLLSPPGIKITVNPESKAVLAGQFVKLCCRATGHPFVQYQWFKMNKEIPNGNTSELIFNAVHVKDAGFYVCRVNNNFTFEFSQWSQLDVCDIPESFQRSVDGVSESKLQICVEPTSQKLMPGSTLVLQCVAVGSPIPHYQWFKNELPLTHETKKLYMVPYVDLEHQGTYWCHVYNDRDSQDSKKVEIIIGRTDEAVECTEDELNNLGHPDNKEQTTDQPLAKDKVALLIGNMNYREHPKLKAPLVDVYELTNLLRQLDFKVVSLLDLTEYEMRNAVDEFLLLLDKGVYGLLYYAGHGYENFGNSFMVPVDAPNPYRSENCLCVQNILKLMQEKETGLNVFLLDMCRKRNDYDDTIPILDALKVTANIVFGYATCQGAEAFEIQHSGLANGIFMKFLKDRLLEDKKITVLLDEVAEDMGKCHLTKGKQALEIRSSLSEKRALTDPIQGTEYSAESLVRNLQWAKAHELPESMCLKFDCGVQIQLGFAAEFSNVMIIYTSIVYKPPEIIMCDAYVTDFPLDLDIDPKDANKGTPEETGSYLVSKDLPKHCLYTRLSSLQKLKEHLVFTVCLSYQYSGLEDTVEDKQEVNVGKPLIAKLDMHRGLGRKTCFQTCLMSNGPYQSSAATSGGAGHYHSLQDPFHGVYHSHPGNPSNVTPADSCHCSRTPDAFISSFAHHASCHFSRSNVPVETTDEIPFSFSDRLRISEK

IC50 (Avi-tagged FL MALT-1) [nM]	IC50 [1] [nM]	Compound
> 2500	< 400	COc1ccc2cnn(C)c2c1NS(=O)(=O)c1cnn(-c2cc(N3CC[C@H](F)C3)ccn2)c1 [Compound I-422]
> 2500	< 400	COc1ccc2cnn(C)c2c1NS(=O)(=O)c1cnn(-c2cc(N3CC[C@@H](F)C3)ccn2)c1 [Compound I-423]
> 2500	< 400	COc1ncc2cnn(C)c2c1NS(=O)(=O)c1cnn(-c2cc(N3CCC4(CC4)C3)ccn2)c1 [Compound I-424]
> 2500	< 400	COc1ncc2cnn(C)c2c1NS(=O)(=O)c1cnn(-c2cc(N3CCC(C)(C)C3)ccn2)c1 [Compound I-425]
> 2500	< 400	COc1ncc2cnn(C)c2c1NS(=O)(=O)c1cnn(-c2cc(N3CC[C@H](F)C3)ccn2)c1 [Compound I-426]
> 2500	400 to 1000	COc1ncc2cnn(C)c2c1NS(=O)(=O)c1cnn(-c2cc(N3CC[C@@H](F)C3)ccn2)c1 [Compound I-427]
400 to 1000	< 400	COc1ncc2cnn(C)c2c1NS(=O)(=O)c1cnn(-c2cc(N3CCC(F)(F)C3)ccn2)c1 [Compound I-428, 1-(4-(3,3-difluoropyrrolidin-1-yl)pyridin-2-yl)-N-(6-methoxy-1-methyl-1H-pyrazolo[4,3-c]pyridin-7-yl)-1H-pyrazole-4-sulfonamide]
> 2500	< 400	Cn1ncc2cccc(NS(=O)(=O)c3cnn(-c4cc(N5CC[C@H](F)C5)ccn4)c3)c21 [Compound I-429, 1-{4-[(3S)-3-fluoropyrrolidin-1-yl]pyridin-2-yl}-N-(1-methylindazol-7-yl) pyrazole-4-sulfonamide]
> 2500	< 400	Cn1ncc2cccc(NS(=O)(=O)c3cnn(-c4cc(N5CC[C@@H](F)C5)ccn4)c3)c21 [Compound I-430, 1-{4-[(3R)-3-fluoropyrrolidin-1-yl]pyridin-2-yl}-N-(1-methylindazol-7-yl)pyrazole-4-sulfonamide]
> 2500	< 400	Cn1ncc2cccc(NS(=O)(=O)c3cnn(-c4cc(N5CCC(F)(F)C5)ccn4)c3)c21 [Compound I-431, 1-[4-(3,3-difluoropyrrolidin-1-yl)pyridin-2-yl]-N-(1-methylindazol-7-yl)pyrazole-4-sulfonamide]
400 to 1000	< 400	COc1ccc2cnn(C)c2c1NS(=O)(=O)c1cnn(-c2cc(N3CC4CC3C4)ccn2)c1 [Compound I-432, 1-(4-(2-azabicyclo[2.1.1]hexan-2-yl)pyridin-2-yl)-N-(6-methoxy-1-methyl-1H-indazol-7-yl)-1H-pyrazole-4-sulfonamide]
> 2500	< 400	COc1ccc2cnn(C)c2c1NS(=O)(=O)c1cnn(-c2cc(N3CCC4(CC4)C3)ccn2)c1 [Compound I-433]
> 2500	< 400	COc1ccc2cnn(C)c2c1NS(=O)(=O)c1cnn(-c2cc(N3CCC(C)(C)C3)ccn2)c1 [Compound I-434]
> 2500	< 400	COc1ccc2cnn(C)c2c1NS(=O)(=O)c1cnn(-c2cc(N3CCC(F)(F)C3)ccn2)c1 [Compound I-435, 1-(4-(3,3-difluoropyrrolidin-1-yl)pyridin-2-yl)-N-(6-methoxy-1-methyl-1H-indazol-7-yl)-1H-pyrazole-4-sulfonamide]
1000 to 2500	< 400	COc1ncc2cnn(C)c2c1NS(=O)(=O)c1cnn(-c2cc(N3CC4CC3C4)ccn2)c1 [Compound I-436]
> 2500	< 400	CN(C)c1ccnc(-n2cc(S(=O)(=O)Nc3cccc4cnn(C)c34)cn2)c1 [Compound I-437, 1-[4-(dimethylamino)pyridin-2-yl]-N-(1-methylindazol-7-yl)pyrazole-4-sulfonamide]
> 2500	< 400	Cn1ncc2cccc(NS(=O)(=O)c3cnn(-c4cc(N5CC(F)C5)ccn4)c3)c21 [Compound I-438, 1-[4-(3-fluoroazetidin-1-yl)pyridin-2-yl]-N-(1-methylindazol-7-yl)pyrazole-4-sulfonamide]
> 2500	< 400	Cn1ncc2cccc(NS(=O)(=O)c3cnn(-c4cc(N5CC(F)(F)C5)ccn4)c3)c21 [Compound I-439, 1-[4-(3,3-difluoroazetidin-1-yl)pyridin-2-yl]-N-(1-methylindazol-7-yl) pyrazole-4-sulfonamide]
> 2500	< 400	Cn1ncc2cccc(NS(=O)(=O)c3cnn(-c4cc(N5CC(C)(F)C5)ccn4)c3)c21 [Compound I-440, 1-[4-(3-fluoro-3-methylazetidin-1-yl)pyridin-2-yl]-N-(1-methylindazol-7-yl)pyrazole-4-sulfonamide]
> 2500	< 400	COC1CN(c2ccnc(-n3cc(S(=O)(=O)Nc4cccc5cnn(C)c45)cn3)c2)C1 [Compound I-441, 1-(4-(3-methoxyazetidin-1-yl)pyridin-2-yl)-N-(1-methyl-1H-indazol-7-yl)-1H-pyrazole-4-sulfonamide]
1000 to 2500	< 400	COc1ccc2cnn(C)c2c1NS(=O)(=O)c1cnn(-c2cc(N3CC(F)C3)ccn2)c1 [Compound I-442]
1000 to 2500	< 400	COc1ccc2cnn(C)c2c1NS(=O)(=O)c1cnn(-c2cc(N3CC(F)(F)C3)ccn2)c1 [Compound I-443, 1-[4-(3,3-difluoroazetidin-1-yl)pyridin-2-yl]-N-(6-methoxy-1-methylindazol-7-yl)pyrazole-4-sulfonamide]
> 2500	< 400	COc1ccc2cnn(C)c2c1NS(=O)(=O)c1cnn(-c2cc(N3CC(C)(F)C3)ccn2)c1 [Compound I-444, 1-(4-(3-fluoro-3-methylazetidin-1-yl)pyridin-2-yl)-N-(6-methoxy-1-methyl-1H-indazol-7-yl)-1H-pyrazole-4-sulfonamide]
> 2500	< 400	COc1ccc2cnn(C)c2c1NS(=O)(=O)c1cnn(-c2cc(N3CC(OC)C3)ccn2)c1 [Compound I-445]
> 2500	< 400	COC1(C)CN(c2ccnc(-n3cc(S(=O)(=O)Nc4cccc5cnn(C)c45)cn3)c2)C1 [Compound I-446, 1-[4-(3-methoxy-3-methylazetidin-1-yl)pyridin-2-yl]-N-(1-methylindazol-7-yl)pyrazole-4-sulfonamide]
> 2500	400 to 1000	Cn1ncc2cccc(NS(=O)(=O)c3cnn(-c4cnn5c4COCCC5)c3)c21 [Compound I-447, 1-(7,8-Dihydro-4H,6H-Pyrazolo[5,1-C][1,4]Oxazepin-3-yl)-N-(1-Methyl-1H-Indazol-7-yl)-1H-Pyrazole-4-Sulfonamide]
> 2500	< 400	Cn1ncc2cccc(NS(=O)(=O)c3cnn(-c4cc(C5(C#N)CCCC5)ccn4)c3)c21 [Compound I-448, 1-(4-(1-cyanocyclopentyl)pyridin-2-yl)-N-(1-methyl-1H-indazol-7-yl)-1H-pyrazole-4-sulfonamide]
1000 to 2500	< 400	COc1ccc2cnn(C)c2c1NS(=O)(=O)c1cnn(-c2cc(C3(C#N)CCCC3)ccn2)c1 [Compound I-449, 1-(4-(1-cyanocyclopentyl)pyridin-2-yl)-N-(6-methoxy-1-methyl-1H-indazol-7-yl)-1H-pyrazole-4-sulfonamide]
